Source: patent US12433858B2, “Substituted cycloalkanes for managing nephrogenic diabetes insipidus” (NephroDI Therapeutics, Inc., priority 2017, dated 2025)
Entries after “also recorded” stand apart in the source; their conditions may differ.

Columns and labels:
[1] = Hypoglycemia evaluation on chronic dosing in exercised tolvaptan-treated NDI rats (blood glucose); format: in vivo, rat; conditions: 25 mg/kg/day, daily for 5 days
Description: (§1) An experiment was designed to approximate hypoglycemia in the tolvaptan-treated rat NDI model to look for hypoglycemia. A timeline for the experiment is illustrated in FIG. 4A. The rats were given tolvaptan beginning Day negative 3. On Day zero half of the rats started to receive 25 mg/kg/day of NDI-5033. After observing an improvement in the urine concentration, the animals were exercised daily for 5 days. Food was removed from the animals and NDI-5033 was given, then 4 hours later rats were subjected to 30 minutes of treadmill running. Blood glucose measurements were taken before and after the bout of exercise. Food was restored. The process was repeated daily for 5 days. The average urine osmolality and urine volumes in the NDI rats not receiving NDI-5033 (control) or receiving 25 mg/kg/day NDI-5033 is shown in FIG. 4B. Urine osmolality was increased (p<0.05) and urine volume decreased (p<0.07) upon drug treatment. […] For each day, patterned bars are from rats not receiving NDI-5033. The leftmost bar (diagonal) is before and to the right is after exercise. The next two bars show blood glucose values for rats receiving NDI-5033. Solid black is before and solid white is after exercise.

[2] = tested on: V2R knock-out NDI mice; experiment: V2R knock-out mouse genetic model of NDI, 24-hour urine osmolality; format: in vivo
Description: (§2) NDI-5033 was tested to determine an initial time course and sustainability of the anti-diuretic response. Rats were given tolvaptan to initiate NDI. They were then fed 100 mg/kg/day with NDI-5033 for 3 days (FIG. 2A). […] To ensure that the observed efficacy is not compromised by potential binding of NDI-5033 to V2R, NDI-5033 was given to mice in which the V2R was genetically knocked out yielding a genetic model of NDI (FIG. 2B). Control mice received no drug. NDI-5033 was given by injection to the mice and 24-hour urine collected and assessed for urine osmolality. NDI-5033 produced a 50% improvement in urine concentration.
(§3) Tolvaptan induced NDI rats were prepared and fed with doses of NDI-5033 from 0 to 100 mg/kg/day in a series of experiments. […] To confirm the effectiveness of the 25 mg/kg/day dose, NDI-5033 was given to V2R knock-out NDI mice and 24-hour urines were assessed for urine osmolality (FIG. 3B). The osmolality was increased in NDI mice after treatment with 25 mg/kg/day of NDI-5033.

[3] = tested on: Tolvaptan induced NDI rats; experiment: Tolvaptan-induced NDI rat model, urine concentration; format: in vivo
Description: Rats were given tolvaptan to induce NDI. Tolvaptan binds to and blocks the vasopressin type 2 receptor (V2R) and renders the animals insensitive to vasopressin-induced antidiuresis. The efficacy of three compounds of Formula I were evaluated. Each rat was gavage fed with 10 mg/kg/day of tolvaptan in the carrier solution (1% hydroxypropylmethyl cellulose in water) for 3 days to prepare the NDI model. The drugs were added to the gavage feeding solution and delivered daily for 4 days (NDI-5001, 200 mg/kg/day; NDI-5033 or NDI-5037, 50 mg/kg/day). Control rats were sham gavage fed.
as §2, §3, §1

[4] = food removed, 30 minutes treadmill 4 hours after dose
[5] = 100 mg/kg/day for 3 days, tolvaptan NDI rats

| blood glucose before versus after exercise [1, 4] | blood glucose relative to normal range for rats [1, 4] | SMILES | hypoglycemia ([1]; exercised NDI rats) | urine osmolality (in words) ([2]; 25 mg/kg/day, 24-hour urines, FIG. 3B) | improvement in urine concentration ([2]; given by injection, 24-hour urine, versus control mice receiving no drug) | average urine osmolality (in words) ([3]; 25 mg/kg/day versus control NDI rats, exercise study, p<0.05, FIG. 4B) | average urine volume (in words) ([3]; 25 mg/kg/day versus control NDI rats, exercise study, p<0.07, FIG. 4B) | duration for which anti-diuretic response is sustained [3, 5] | time to anti-diuretic effect after initial treatment [3, 5] | urine concentrating ability (urine osmolality) as percent of untreated, fully concentrating rats (basal, set to 100%) ([3]; NDI-5033 50 mg/kg/day by gavage daily for 4 days, after tolvaptan 10 mg/kg/day for 3 days) | dose showing statistically significant improvements in urine concentrations ([3]; dose response 0 to 100 mg/kg/day, FIG. 3A) | urine osmolality (in words) ([3]; dosed with NDI inducing agent tolvaptan, FIG. 2A, 100 mg/kg/day for 3 days) | efficacy / urine concentrating ability (in words) ([3]; gavage daily for 4 days, NDI-5001 200 mg/kg/day, NDI-5033 or NDI-5037 50 mg/kg/day, tolvaptan NDI rats) | urine osmolality as percent of the normal animal ([3]; tolvaptan 10 mg/kg/day by gavage for 3 days, NDI induction) |
| --- | --- | --- | --- | --- | --- | --- | --- | --- | --- | --- | --- | --- | --- | --- |
| no statistical difference | within the normal range | NC(=O)C1(CCCCCCCCCCCCC2(C(N)=O)CC2)CC1 [NDI-5033, 1,1′-(dodecane-1,12-diyl)bis(cyclopropane-1-carboxamide)] | no evidence of hypoglycemia; also recorded: do not experience hypoglycemia | increased | 50% | increased | decreased | 3 days | ≤ 24 h | 75 % of normal | ≥ 10 mg/kg/day | increases urine osmolality | improve urine concentrating ability | – |
| – | – | Cc1ccccc1C(=O)Nc1ccc(C(=O)N2CCCC(O)c3cc(Cl)ccc32)c(C)c1 (centres unmarked) [tolvaptan, reference compound] | – | – | – | – | – | – | – | – | – | – | – | 10 % of the normal animal |
